We go through one molecule from patent US20220304945A1, “METHODS OF TREATING METABOLIC SYNDROME RELATED CONDITIONS USING RETINOIC ACID RECEPTOR AGONISTS” (Cornell University, priority 2014, published 2022).

Experiment [1] has as its system HF-fed C57/BL6 mice. In words: Metabolic studies (body weight, GTT) in HF-fed wild type mice, 4 months. The format is in vivo, mouse. The conditions noted are these: obese HF-fed mice, 3.0 mg/100 ml drinking water. As for the experimental part:
Mice, diet, and drug treatment. Dietary Obesity Studies: Wild type (wt) male C57/BL6 male mice were maintained on either a standard laboratory chow-fed diet (Con) with 13% kcal fat, (diet #5053, Lab Diet, Inc, St. Louis, Mo.) or a high fat, western style diet (HFD) with 45% kcals from fat, (diet #58126, Lab Diet, Inc., St. Louis, Mo.) for 4 months. […]
Metabolic Measurements-Glucose tolerance was performed using an intraperitoneal glucose tolerance test (GTT) as previously described (Trasino et al., Vitamin A Deficiency Causes Hyperglycemia and Loss of Pancreatic β-Cell Mass, J Biol Chem. 2014 Dec. 1. pii: jbc.M114.616763). […] Tail vein blood glucose was measured at 20, 40, 60 and 120 minutes after injection using a FreeStyle Lite Blood Glucose Monitoring System (Abbott Diabetes Care, Inc. Alameda, Calif.). To determine insulin secretion responses to glucose, serum fractions were isolated between 0-60 minutes post glucose injections and insulin concentrations were measured using an Ultrasensitive Insulin ELISA Kit (Alpco, Inc. Salem, N.H.). Random blood glucose measurements were taken from tail veins of 4 mice per group at 2-3 random time points daily Means are expressed as±standard error of the mean (S.E.M) and P-values were calculated using one-way analysis of variance followed by Bonferroni post-hoc analysis.

Experiment [2] relates to Ob/Ob and Db/Db mice. In words: Metabolic studies (body weight, GTT, insulin secretion, ITT) in Ob/Ob and Db/Db mice, 8 weeks. The conditions noted are these: genetically obese and diabetic Ob/Ob and Db/Db mice. The format is in vivo, mouse.
Experiment [3] concerns the target T1, RARβ2 (Homo sapiens, UniProt P10826).
T1 sequence (P10826 1-448 isoform P10826-2): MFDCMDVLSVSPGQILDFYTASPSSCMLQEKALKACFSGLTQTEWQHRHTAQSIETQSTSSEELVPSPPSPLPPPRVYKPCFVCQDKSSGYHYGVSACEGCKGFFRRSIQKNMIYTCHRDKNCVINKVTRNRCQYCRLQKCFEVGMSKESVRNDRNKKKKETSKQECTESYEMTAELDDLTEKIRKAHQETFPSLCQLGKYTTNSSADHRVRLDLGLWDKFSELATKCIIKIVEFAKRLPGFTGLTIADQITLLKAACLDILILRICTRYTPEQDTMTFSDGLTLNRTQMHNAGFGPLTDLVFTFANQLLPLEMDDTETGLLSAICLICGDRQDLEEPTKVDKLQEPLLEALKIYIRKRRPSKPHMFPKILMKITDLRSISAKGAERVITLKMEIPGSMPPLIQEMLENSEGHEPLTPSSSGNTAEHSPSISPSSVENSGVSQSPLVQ
The conditions noted are these: as described in Lund et al. 2005; cited from earlier work.

For experiment [4], the system named is HF-fed C57/BL6 mice. Put plainly: HF-fed mice treated 3 months: body weight, GTT, fasting glucose (Example 22). The format is in vivo, mouse. How it is done:
METHODS. Preparation of RARβ agonists solution. AC261066 and AC55649 were dissolved in dimethyl sulfoxide (DMSO) at the concentration of 3.0 mg/ml and diluted in the drinking water for mice to the final concentration of 3.0-mg/100 ml. Mice, diet, and drug treatments. Wt male C57/BL6 male mice were maintained on either a standard laboratory chow-fed diet (Con) with 13% kcal fat, (diet #5053, Lab Diet, Inc, St. Louis, Mo., [n=4]) or a high fat, western style diet (HFD) with 45% kcals from fat, (diet #58126, Lab Diet, Inc., St. Louis, Mo.) for 3 months. Two weeks after the start of the HFD treatment, the HFD group was further split into 3 groups for 3 months: i) HFD and drinking water containing 1% DMSO (n=5); ii) high fat diet (HFD) and drinking water containing 3.0 mg/100 ml AC261066, a specific RARβ agonist (n=5) or iii) HFD and drinking water containing 3.0 mg/100 ml AC55649, a specific RARβ agonist (n=4). After 3 months the mice were tested for glucose intolerance with an intra-peritoneal glucose tolerance test (GTT). Mice were then sacrificed by cervical dislocation. Blood and various tissue samples were harvested.
Glucose Tolerance Test (GTT). Glucose tolerance was performed using an intraperitoneal glucose tolerance test (GTT). Mice were fasted overnight (˜16 hrs) followed by intra-peritoneal injections (n=3-5 per group) of 50% glucose in PBS at 2.0 g of glucose/kg of body weight. Tail vein blood was collected at 15, 30, 45, 60, and 120 minutes post-injection for glucose measurements using a FreeStyle Lite Blood Glucose Monitoring System (Abbott Diabetes Care, Inc. Alameda, Calif.). Random and fasting blood glucose measurements were taken from tail veins of 4 mice per group at 2-3 random time points daily or just prior to GTT. Means are expressed as ±standard error of the mean (S.E.M) and P-values were calculated using one-way analysis of variance followed by Bonferroni post-hoc analysis. Grubbs' maximum normal residual test was used for detection of one or more outliers.

Turning to `CCCCCCCCc1ccc(-c2ccc(C(=O)O)cc2)cc1` [AC55649, 4′-Octyl-[1,1′-biphenyl]-4-carboxylic acid], the body weights result in experiment [1] was “significant reductions”. In experiment [2], the body weights entry was “significant reductions”. In experiment [3], the “isoform selectivity for the human RARβ2 receptors” value is listed as “highly isoform-selective agonists”. Further, in experiment [4], the “glucose tolerance and area under the curve glucose” value was “improved”; the “overnight fasting glucose levels” value is given as “significant reductions”. Besides, the “decrease in body weights compared to HF-fed mice” value in experiment [4] (3.0 mg/100 ml drinking water) is given as roughly 10%.
